Laboratory results published in the supplement of paper PMC10307832.

What was measured:
Test in all cases: relative viability (nuclei count vs DMSO), 5 days (fraction); higher = more cells survive
PAC-1 + Decitabine = compound: C=CCc1cccc(/C=N/NC(=O)CN2CCN(Cc3ccccc3)CC2)c1O [PAC-1] + Nc1ncn([C@H]2C[C@H](O)[C@@H](CO)O2)c(=O)n1 [Decitabine] (partner 2 µM)
Method in brief: (§1)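 Lung cancer cell lines, seeded in 1536-well plates, were treated the following day by pin tool with a single drug or with five library-drug doses (not always all listed) in √10 steps on top of a fixed anchor-drug dose. Cells were fixed and nuclei stained in one step after 5 days, and nuclei were counted. Relative viability is the nuclei count for treated wells divided by that for vehicle wells, reported as medians of duplicate plates.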

BMX-IN-1 + Luminespib = compound: C=CC(=O)Nc1cc(-n2c(=O)ccc3cnc4ccc(-c5ccc(NS(C)(=O)=O)cc5)cc4c32)ccc1C [BMX-IN-1] + CCNC(=O)c1noc(-c2cc(C(C)C)c(O)cc2O)c1-c1ccc(CN2CCOCC2)cc1 [Luminespib] (partner 0.01 µM)
Method in brief: as §1

PAC-1 + Lapatinib = compound: C=CCc1cccc(/C=N/NC(=O)CN2CCN(Cc3ccccc3)CC2)c1O [PAC-1] + CS(=O)(=O)CCNCc1ccc(-c2ccc3ncnc(Nc4ccc(OCc5cccc(F)c5)c(Cl)c4)c3c2)o1 [Lapatinib] (partner 2 µM)
Method in brief: as §1

BMX-IN-1 + Olaparib = compound: C=CC(=O)Nc1cc(-n2c(=O)ccc3cnc4ccc(-c5ccc(NS(C)(=O)=O)cc5)cc4c32)ccc1C [BMX-IN-1] + O=C(c1cc(Cc2n[nH]c(=O)c3ccccc23)ccc1F)N1CCN(C(=O)C2CC2)CC1 [Olaparib] (partner 8 µM)
Method in brief: as §1

Row | Cell Line | relative viability (PAC-1 + Decitabine; first compound 0.02 µM) | relative viability (PAC-1 + Decitabine; first compound 0.06325 µM) | relative viability (PAC-1 + Decitabine; first compound 0.2 µM) | relative viability (PAC-1 + Decitabine; first compound 2 µM) | relative viability (BMX-IN-1 + Luminespib; first compound 0.02 µM) | relative viability (BMX-IN-1 + Luminespib; first compound 0.2 µM) | relative viability (BMX-IN-1 + Luminespib; first compound 0.6325 µM) | relative viability (BMX-IN-1 + Luminespib; first compound 2 µM) | relative viability (PAC-1 + Lapatinib; first compound 0.02 µM) | relative viability (PAC-1 + Lapatinib; first compound 0.06325 µM) | relative viability (PAC-1 + Lapatinib; first compound 0.2 µM) | relative viability (PAC-1 + Lapatinib; first compound 2 µM) | relative viability (BMX-IN-1 + Olaparib; first compound 0.02 µM) | relative viability (BMX-IN-1 + Olaparib; first compound 0.2 µM) | relative viability (BMX-IN-1 + Olaparib; first compound 0.6325 µM) | relative viability (BMX-IN-1 + Olaparib; first compound 2 µM)
1 | NCI-H1355 | 0.32 | 0.363 | 0.335 | 0.373 | 0.75 | 0.724 | 0.699 | 0.711 | 0.97 | 0.977 | 0.929 | 1.11 | 0.805 | 0.813 | 0.713 | 0.749
2 | LK-2 | 0.328 | 0.284 | 0.264 | 0.335 | 0.197 | 0.219 | 0.176 | 0.207 | 0.77 | 1.04 | 0.884 | 0.932 | 0.799 | 0.69 | 0.775 | 0.902
3 | NCI-H1650 | 0.447 | 0.441 | 0.344 | 0.371 | 0.205 | 0.198 | 0.221 | 0.203 | 0.749 | 0.875 | 0.675 | 0.668 | 0.977 | 0.914 | 0.762 | 0.77
4 | NCI-H838 | 0.425 | 0.45 | 0.462 | 0.445 | 0.245 | 0.291 | 0.302 | 0.294 | 0.931 | 0.968 | 0.83 | 1.01 | 0.81 | 0.933 | 0.915 | 0.859
5 | EMC-BAC-2 | 0.924 | 0.989 | 0.895 | 1.01 | 1.36 | 1.33 | 1.4 | 1.1 | 0.841 | 0.865 | 0.899 | 0.974 | 0.514 | 0.49 | 0.512 | 0.494
6 | SW 1573 | 0.532 | 0.551 | 0.432 | 0.564 | 0.28 | 0.221 | 0.225 | 0.205 | 1.05 | 1.16 | 1 | 1.09 | 0.592 | 0.49 | 0.433 | 0.343
7 | CAL-12T |  |  |  |  | 0.578 | 0.483 | 0.392 | 0.712 | 0.604 | 0.788 | 0.665 | 0.599 | 0.822 | 0.71 | 0.695 | 0.759
8 | NCI-H2009 | 0.377 | 0.339 | 0.316 | 0.354 | 1.11 | 1.09 | 1.06 | 1.08 | 0.93 | 0.318 | 0.855 | 0.9 | 0.838 | 0.646 | 0.654 | 0.66
9 | HARA | 0.573 | 0.688 | 0.507 | 0.487 | 1.01 | 0.207 | 0.683 | 0.682 | 0.698 | 0.875 | 0.796 | 0.905 | 1.01 | 0.859 | 0.936 | 0.734
10 | HCC-827 | 0.354 | 0.285 | 0.277 | 0.292 | 0.589 | 0.805 | 0.716 | 0.713 | 0.193 | 0.194 | 0.186 | 0.198 | 0.597 | 0.635 | 0.652 | 0.629
11 | EBC-1 |  |  |  |  |  |  |  |  | 0.184 | 0.218 | 0.23 | 0.225 | 0.734 | 0.689 | 0.779 | 0.762
12 | NCI-H647 | 0.358 | 0.403 | 0.328 | 0.321 | 0.242 | 0.294 | 0.179 | 0.379 | 0.851 | 1.05 | 0.866 | 0.934 | 0.687 | 1.04 | 0.553 | 0.574
13 | A549 | 0.342 | 0.267 | 0.138 | 0.253 |  |  |  |  | 0.935 | 0.804 | 1 | 1.06 | 0.286 | 0.392 | 0.249 | 0.306
14 | NCI-H661 | 0.526 | 0.53 | 0.439 | 0.506 | 1 | 0.916 | 1.03 | 0.863 | 0.313 | 0.541 | 0.552 | 0.445 | 0.963 | 0.758 | 0.81 | 0.738
15 | NCI-H1651 | 0.649 | 0.552 | 0.39 | 0.675 | 1.12 | 0.911 | 1.05 | 0.773 | 0.757 | 0.8 | 0.725 | 0.855 | 0.175 | 0.182 | 0.18 | 0.183
16 | HCC-78 | 0.749 | 0.639 | 0.529 | 0.649 |  |  |  |  | 0.753 | 0.822 | 0.657 | 1.05 | 1.09 | 0.744 | 0.804 | 0.913
17 | NCI-H2085 | 0.554 | 0.504 | 0.572 | 0.492 | 0.404 | 0.389 | 0.401 | 0.406 | 0.756 | 0.728 | 0.707 | 0.909 | 0.807 | 0.704 | 0.782 | 0.746
18 | NCI-H2228 |  |  |  |  | 0.176 | 0.138 | 0.108 | 0.13 | 1.26 | 1.25 | 1.02 | 1.23 | 0.768 | 0.835 | 0.667 | 0.784
19 | LU99A | 0.826 | 0.773 | 0.801 | 0.881 | 0.216 | 0.181 | 0.227 | 0.258 | 1.11 | 1.05 | 0.918 | 0.977 | 0.25 | 0.259 | 0.265 | 0.229
20 | NCI-H522 | 0.607 | 0.641 | 0.614 | 0.697 | 1.24 | 1.26 | 1.1 | 1.19 |  |  |  |  | 0.656 | 0.689 | 0.66 | 0.601
21 | LCLC-97TM1 | 0.229 | 0.215 |  | 0.261 | 0.969 | 0.856 | 0.817 | 0.823 |  | 0.796 | 0.796 | 0.954 | 0.383 | 0.597 | 0.413 | 0.367
22 | NCI-H2023 | 0.216 | 0.217 | 0.182 | 0.182 | 1.06 | 1.03 | 0.774 | 0.739 | 1.1 | 0.849 | 0.768 | 0.847 | 0.516 | 0.655 | 0.47 | 0.489
